Experimental data: the NIST ThermoML archive (doi:10.1021/je060271a)
Numbers after ± are expanded uncertainties.

Conditions: 343.15 K, Liquid, Vibrating tube method

CCCCC(=O)OCC(COC(=O)CCCC)(COC(=O)CCCC)COC(=O)CCCC [pentaerythritol tetrapentanoate]
Conditions | mass density [kg/m3]
27496 kPa | 998.3 ± 1.2
27541 kPa | 998.4 ± 1.2
27578 kPa | 998.4 ± 1.2
27617 kPa | 998.5 ± 1.2
27662 kPa | 998.4 ± 1.2
27700 kPa | 998.5 ± 1.2
27738 kPa | 998.5 ± 1.2
27785 kPa | 998.6 ± 1.2
27824 kPa | 998.6 ± 1.2
27862 kPa | 998.5 ± 1.2
27909 kPa | 998.6 ± 1.2
27948 kPa | 998.7 ± 1.2
27987 kPa | 998.7 ± 1.2
28026 kPa | 998.7 ± 1.2
28074 kPa | 998.7 ± 1.2
28113 kPa | 998.8 ± 1.2
28153 kPa | 998.7 ± 1.2
28200 kPa | 998.8 ± 1.2
28240 kPa | 998.9 ± 1.2
28289 kPa | 998.9 ± 1.2
28330 kPa | 998.9 ± 1.2
28371 kPa | 998.8 ± 1.2
28412 kPa | 998.9 ± 1.2
28453 kPa | 999 ± 1.2
28503 kPa | 998.9 ± 1.2
28545 kPa | 999 ± 1.2
28596 kPa | 999.1 ± 1.2
28641 kPa | 999 ± 1.2
28684 kPa | 999 ± 1.2
28725 kPa | 999.2 ± 1.2
28755 kPa | 999.2 ± 1.2
28785 kPa | 999.3 ± 1.2
28821 kPa | 999.1 ± 1.2
28853 kPa | 999.3 ± 1.2
28882 kPa | 999.3 ± 1.2
28912 kPa | 999.2 ± 1.2
28948 kPa | 999.2 ± 1.2
28978 kPa | 999.3 ± 1.2
29009 kPa | 999.3 ± 1.2
29045 kPa | 999.5 ± 1.2
29076 kPa | 999.4 ± 1.2
29107 kPa | 999.3 ± 1.2
29143 kPa | 999.5 ± 1.2
29174 kPa | 999.4 ± 1.2
29204 kPa | 999.5 ± 1.2
29242 kPa | 999.5 ± 1.2
29275 kPa | 999.5 ± 1.2
29306 kPa | 999.5 ± 1.2
29338 kPa | 999.6 ± 1.2
29375 kPa | 999.6 ± 1.2
29406 kPa | 999.6 ± 1.2
29437 kPa | 999.6 ± 1.2
29474 kPa | 999.6 ± 1.2
29506 kPa | 999.7 ± 1.2
29538 kPa | 999.7 ± 1.2
29576 kPa | 999.7 ± 1.2
29607 kPa | 999.7 ± 1.2
29639 kPa | 999.8 ± 1.2
29671 kPa | 999.8 ± 1.2
29710 kPa | 999.8 ± 1.2
29741 kPa | 999.9 ± 1.2
29780 kPa | 999.8 ± 1.2
29812 kPa | 999.9 ± 1.2
29845 kPa | 999.9 ± 1.2
29878 kPa | 999.9 ± 1.2
29917 kPa | 1000 ± 1.2
29950 kPa | 999.9 ± 1.2
29983 kPa | 1000.1 ± 1.2
30022 kPa | 999.9 ± 1.2
30056 kPa | 1000 ± 1.2
30088 kPa | 999.9 ± 1.2
30128 kPa | 1000.2 ± 1.2
30194 kPa | 1000.1 ± 1.2
30227 kPa | 1000.2 ± 1.2
30266 kPa | 1000.1 ± 1.2
30299 kPa | 1000.3 ± 1.2
30333 kPa | 1000.3 ± 1.2
30374 kPa | 1000.1 ± 1.2
30407 kPa | 1000.2 ± 1.2
30441 kPa | 1000.2 ± 1.2
30480 kPa | 1000.3 ± 1.2
30514 kPa | 1000.3 ± 1.2
30549 kPa | 1000.3 ± 1.2
30590 kPa | 1000.5 ± 1.2
30624 kPa | 1000.3 ± 1.2
30658 kPa | 1000.4 ± 1.2
30698 kPa | 1000.5 ± 1.2
30733 kPa | 1000.5 ± 1.2
30767 kPa | 1000.5 ± 1.2
30808 kPa | 1000.6 ± 1.2
30843 kPa | 1000.4 ± 1.2
30878 kPa | 1000.6 ± 1.2
30919 kPa | 1000.5 ± 1.2
30954 kPa | 1000.5 ± 1.2
30990 kPa | 1000.7 ± 1.2
31031 kPa | 1000.7 ± 1.2
31067 kPa | 1000.8 ± 1.2
31103 kPa | 1000.6 ± 1.2
31138 kPa | 1000.7 ± 1.2
31181 kPa | 1000.7 ± 1.2
31216 kPa | 1000.7 ± 1.2
31252 kPa | 1000.8 ± 1.2
31294 kPa | 1000.8 ± 1.2
31330 kPa | 1000.9 ± 1.2
31366 kPa | 1000.9 ± 1.2
31409 kPa | 1001 ± 1.2
31444 kPa | 1000.8 ± 1.2
31481 kPa | 1000.8 ± 1.2
31524 kPa | 1000.8 ± 1.2
31560 kPa | 1000.9 ± 1.2
31597 kPa | 1000.9 ± 1.2
31634 kPa | 1001 ± 1.2
31678 kPa | 1001 ± 1.2
31714 kPa | 1001 ± 1.2
31758 kPa | 1001.1 ± 1.2
31795 kPa | 1001 ± 1.2
31832 kPa | 1001 ± 1.2
31876 kPa | 1001.1 ± 1.2
31913 kPa | 1001.1 ± 1.2
31950 kPa | 1001.3 ± 1.2
31995 kPa | 1001.3 ± 1.2
32033 kPa | 1001.4 ± 1.2
32074 kPa | 1001.2 ± 1.2
32111 kPa | 1001.4 ± 1.2
32156 kPa | 1001.3 ± 1.2
32194 kPa | 1001.5 ± 1.2
32232 kPa | 1001.2 ± 1.2
32278 kPa | 1001.4 ± 1.2
32438 kPa | 1001.5 ± 1.2
32476 kPa | 1001.5 ± 1.2
32563 kPa | 1001.6 ± 1.2
32604 kPa | 1001.6 ± 1.2
32643 kPa | 1001.6 ± 1.2
32691 kPa | 1001.8 ± 1.2
32730 kPa | 1001.6 ± 1.2
32769 kPa | 1001.8 ± 1.2
32816 kPa | 1001.8 ± 1.2
32856 kPa | 1001.8 ± 1.2
32896 kPa | 1001.8 ± 1.2
32943 kPa | 1001.8 ± 1.2
32983 kPa | 1001.9 ± 1.2
33024 kPa | 1001.9 ± 1.2
33064 kPa | 1001.9 ± 1.2
33114 kPa | 1002 ± 1.2
33154 kPa | 1001.9 ± 1.2
33196 kPa | 1001.9 ± 1.2
33244 kPa | 1002.1 ± 1.2
33285 kPa | 1002.1 ± 1.2
33326 kPa | 1002.2 ± 1.2
33374 kPa | 1002 ± 1.2
33416 kPa | 1002.1 ± 1.2
33457 kPa | 1002.2 ± 1.2
33507 kPa | 1002.2 ± 1.2
33548 kPa | 1002.2 ± 1.2
33591 kPa | 1002.3 ± 1.2
33641 kPa | 1002.3 ± 1.2
33684 kPa | 1002.3 ± 1.2
33726 kPa | 1002.5 ± 1.2
33778 kPa | 1002.4 ± 1.2
33822 kPa | 1002.4 ± 1.2
